{"source": "patent US20150368213A1", "about": "“Novel Inhibitors of System Xc-” (The University of Montana, Missoula, MT, priority 2014, published 2015)", "target": "T1, System xc− (Sxc−, glutamate/cystine antiporter) (Homo sapiens, UniProt Q9UPY5)", "T1 construct": "A number of glioma cell lines, including SNB-19, express markedly higher levels of Sxc^−; host or cells: SNB-19 human glioma cells", "T1 sequence (Q9UPY5 1-501)": "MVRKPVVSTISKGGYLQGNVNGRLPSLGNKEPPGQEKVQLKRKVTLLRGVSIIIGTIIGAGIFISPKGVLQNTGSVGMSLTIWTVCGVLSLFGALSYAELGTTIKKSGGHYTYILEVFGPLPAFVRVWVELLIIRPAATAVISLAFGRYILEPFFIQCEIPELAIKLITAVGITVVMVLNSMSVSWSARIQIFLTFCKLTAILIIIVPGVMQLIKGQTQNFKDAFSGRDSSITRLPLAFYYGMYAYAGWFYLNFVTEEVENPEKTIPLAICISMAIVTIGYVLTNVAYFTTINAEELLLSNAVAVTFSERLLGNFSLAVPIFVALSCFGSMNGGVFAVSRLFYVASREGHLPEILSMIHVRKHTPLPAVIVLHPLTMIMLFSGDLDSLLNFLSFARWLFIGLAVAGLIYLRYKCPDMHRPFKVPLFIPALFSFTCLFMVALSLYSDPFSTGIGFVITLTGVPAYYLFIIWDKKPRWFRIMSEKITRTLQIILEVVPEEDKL", "T1 sequence (P08195 1-529 partner)": "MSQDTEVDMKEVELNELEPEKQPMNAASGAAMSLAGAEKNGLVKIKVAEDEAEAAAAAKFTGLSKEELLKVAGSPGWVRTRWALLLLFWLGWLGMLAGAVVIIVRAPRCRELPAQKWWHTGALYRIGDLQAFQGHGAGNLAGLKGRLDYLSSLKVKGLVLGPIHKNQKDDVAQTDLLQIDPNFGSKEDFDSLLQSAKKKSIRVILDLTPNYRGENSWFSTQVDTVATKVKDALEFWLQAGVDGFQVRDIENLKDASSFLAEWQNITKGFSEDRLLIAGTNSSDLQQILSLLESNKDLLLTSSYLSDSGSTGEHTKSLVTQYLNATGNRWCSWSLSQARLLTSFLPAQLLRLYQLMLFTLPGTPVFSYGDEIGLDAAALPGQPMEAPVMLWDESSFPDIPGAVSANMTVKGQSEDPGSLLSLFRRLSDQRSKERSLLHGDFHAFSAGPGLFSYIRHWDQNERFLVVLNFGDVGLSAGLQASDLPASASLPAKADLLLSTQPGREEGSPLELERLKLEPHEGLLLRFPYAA", "test": "Inhibition of 3H-L-Glu uptake into SNB-19 glioma cells under Cl-dependent (Na-free) conditions", "assay_type": "cell-based", "settings": "for inhibitory activity, ranking among compounds of Table 1: comment on Table 1; for 3H-L-Glu Uptake (% control): 100 μM 3H-L-Glu, smaller number = greater inhibition", "protocol": "SNB-19 glioma cells, purchased from American Type Culture Collection (Manassas, Va.), were grown in DMEM/F-12 medium (pH 7.4) containing 1 mM pyruvate and 16 mM NaHCO3 and supplemented with 10% fetal calf serum. The cells were cultured in 150 cm^2 flasks (Corning) and maintained at 37° C. in a humidified atmosphere of 5% CO2. In the ^3H-L-Glu uptake experiments, cells were seeded in 12 well culture plates (Costar) at a density of 5×10^4 cells/well and maintained for 3 days until 80-90% confluent. Protein concentrations were determined by the bicinchoninic acid (BCA) method (Pierce).\nUptake of ^3H-L-Glu into cultured cells was quantified using a modification of the procedure of Martin and Shane as previously described by Patel et al. (supra). Briefly, after removal of culture media, wells were rinsed three times and pre-incubated in 1 ml Na^+-free HEPES buffered (pH 7.4) Hank's balanced salt solution (HBHS) at 30° C. for 5 min. The Nat free buffer contained: 137.5 mM choline Cl, 5.36 mM KCl, 0.77 mM KH2PO4, 0.71 mM MgSO^4.7H2O, 1.1 mM CaCl2, 10 mM D-glucose, and 10 mM HEPES. Uptake was initiated by aspiration of the pre-incubation buffer and the addition of a 500 gl aliquot of Na^+-free transport buffer containing ^3H-L-Glu (4-16 mCi/m1) mixed with L-Glu (10-500 μM, final concentration). In those assays that evaluated inhibitor activity, the 500 gl aliquot of transport buffer contained both the ^3H-L-Glu and potential inhibitors to ensure simultaneous addition. Following a 5 min incubation at 30° C., the assays were terminated by three sequential 1 ml washes with ice cold buffer after which the cells were dissolved in 1 ml of 0.4 M NaOH for 24 h. An aliquot (200 μl) was then transferred into a 5 ml glass scintillation vial and neutralized with the addition of 5 gl glacial acetic acid followed by 3.5 ml Liquiscint© scintillation fluid (National Diagnostics) to each sample. Incorporation of radioactivity was quantified by liquid scintillation counting (LSC, Beckman LS 6500). Values are reported as mean±S.E.M. and are corrected for non-specific uptake (e.g., leakage and binding) by subtracting the amount of ^3H-L-Glu accumulation at 4° C.\nThe inhibitory activity of the compounds was determined by quantifying the ability of the analogues to reduce the accumulation of ^3H-L-Glu into human SNB-19 glioblastoma cells under Cl-dependent (Na-free) conditions. A number of glioma cell lines, including SNB-19, express markedly higher levels of Sxc^− and reduced levels of the sodium-dependent excitatory amino acid transporters (“EAATs”) than do primary astrocytes, making them well suited for pharmacological assays (Ye et al., Compromised glutamate transport in human glioma cells: reduction-mislocalization of sodium-dependent glutamate transporters and enhanced activity of cystine-glutamate exchange, J Neurosci, 1999 Dec. 15, 19(24), 10767-77). The compounds of the invention were initially screened at a single concentration of substrate (100 μM ^3H-L-Glu) and isoxazole (500 μM) to confirm inhibitory activity. […] (The data are reported as % of control uptake, thus the smaller the number the greater the level of inhibition.)\nA slope replot for 5-4-TFM-Benzyl-4-bis-TFM-HMICA is included in FIG. 3, (average Ki=3±1 μM, n=5). […] In the instance of 5-4-TFM-Benzyl-4-bis-TFM-HMICA the replot of I/Vmax,apparent vs. [I] was indeed linear and yielded a Ki of about 8 μM (plots not shown). […] As the identification of the di-substituted isoxazoles as noncompetitive inhibitors was unexpected, the kinetic data was also analyzed using the Eadie-Hofstee method as a second graphical approach.", "key": {"[1]": {"settings": "SNB-19 cells, 3H-L-Glu uptake, read-out: KI 3H-L-Glu Uptake"}}, "note": "Read-outs that look alike come from different tables or passages of the source."}
{"smiles": "Cc1onc(-c2c(OCc3ccccc3)ccc3ccccc23)c1C(=O)N[C@@H](Cc1cc(Br)c(O)c(Br)c1)C(=O)O", "note": "[Compound 3ND-101, (2S)-2-(3-(2-(benzyloxy)naphthalen-1-yl)-5-methylisoxazole-4-carboxamido)-3-(3,5-dibromo-4-hydroxyphenyl)propanoic acid]", "values": [{"measurement": "inhibitory activity, ranking among compounds of Table 1", "result": "greatest inhibitory activity"}, {"measurement": "3H-L-Glu Uptake (% control)", "setting": "compound 100 μM, SNB-19 cells", "result": 8, "unit": "% control"}, {"measurement": "3H-L-Glu Uptake (% control)", "setting": "compound 500 μM, SNB-19 cells", "result": 1, "unit": "% control"}]}
{"smiles": "CN(C)c1cccc2c(S(=O)(=O)NC(Cc3cc(Br)c(O)c(Br)c3)C(=O)O)cccc12", "note": "(centres unmarked) [Danzyl-DBT, 3-(3,5-dibromo-4-hydroxyphenyl)-2-(5-(dimethylamino)naphthalene-1-sulfonamido)propanoic acid]", "values": [{"measurement": "Ki", "setting": "[1]", "result": 25, "unit": "µM"}, {"measurement": "3H-L-Glu Uptake (% control)", "setting": "compound 100 μM, SNB-19 cells", "result": 52, "unit": "% control"}]}
{"smiles": "COc1ccc2ccccc2c1-c1noc(C)c1C(=O)NC(Cc1cc(Br)c(O)c(Br)c1)C(=O)O", "note": "(centres unmarked) [MOI-16, 3-(3,5-dibromo-4-hydroxyphenyl)-2-(5-methyl-3-(2-methoxynaphthalen-1-yl)isoxazole-4-carboxamido)propanoic acid]", "values": [{"measurement": "3H-L-Glu Uptake (% control)", "setting": "compound 100 μM, SNB-19 cells", "result": 32, "unit": "% control"}, {"measurement": "3H-L-Glu Uptake (% control)", "setting": "compound 500 μM, SNB-19 cells", "result": 8, "unit": "% control"}, {"measurement": "inhibition of the System Xc- antiporter, in words", "setting": "statement in the crystal structure description", "result": "potent inhibitor"}]}
{"smiles": "Cc1onc(-c2c3ccccc3c(Cl)c3ccccc23)c1C(=O)NC(Cc1cc(Br)c(O)c(Br)c1)C(=O)O", "note": "(centres unmarked) [AIM-DBT, 2-(3-(10-chloroanthracen-9-yl)-5-methylisoxazole-4-carboxamido)-3-(3,5-dibromo-4-hydroxyphenyl)propanoic acid]", "values": [{"measurement": "Ki", "setting": "[1]", "result": 15, "unit": "µM"}, {"measurement": "inhibitory activity, ranking among compounds of Table 1", "result": "greatest inhibitory activity"}, {"measurement": "3H-L-Glu Uptake (% control)", "setting": "compound 100 μM, SNB-19 cells", "result": 8, "unit": "% control"}]}
{"smiles": "Cc1onc(-c2cccc3ccccc23)c1C(=O)NC(Cc1cc(Br)c(O)c(Br)c1)C(=O)O", "note": "(centres unmarked) [LC-19, 3-(3,5-dibromo-4-hydroxyphenyl)-2-(5-methyl-3-(naphthalen-1-yl)isoxazole-4-carboxamido)propanoic acid]", "values": [{"measurement": "3H-L-Glu Uptake (% control)", "setting": "compound 100 μM, SNB-19 cells", "result": 23, "unit": "% control"}, {"measurement": "3H-L-Glu Uptake (% control)", "setting": "compound 500 μM, SNB-19 cells", "result": 6, "unit": "% control"}]}
{"smiles": "C/C(=N\\Nc1cc(C(F)(F)F)cc(C(F)(F)F)c1)c1c(C(=O)O)noc1Cc1ccc(C(F)(F)F)cc1", "note": "[5-4-TFM-Benzyl-4-bis-TFM-HMICA]", "values": [{"measurement": "pattern (mechanism) of inhibition", "setting": "Michaelis-Menten, LWB and Eadie-Hofstee analyses, FIGS. 1-4", "result": "noncompetitive inhibition"}, {"measurement": "3H-L-Glu Uptake (% control)", "setting": "compound 100 μM, SNB-19 cells", "result": 14, "unit": "% control"}, {"measurement": "Ki", "setting": "replot of LWB graphs, plots not shown, read-out: Ki from 1/Vmax,apparent vs. [I] replot", "result": "~8", "unit": "µM"}, {"measurement": "Ki", "setting": "slope replot (FIG. 3), n=5, read-out: average Ki from LWB slope vs. [I] replot", "result": "3 ± 1", "unit": "µM"}]}
